Measurements published in paper PMC11603412, “Anti-hepatocellular carcinoma activities of novel hydrazone derivatives via downregulation of interleukin-6” (RSC Advances, 2024).
Entries after “also recorded” stand apart in the source; their conditions may differ.

Columns and labels:
HepG2 cells [1] = assay: Active caspase 3 apoptosis flow cytometry; type: cell-based, human; conditions: for percentage of apoptotic cells compared to the control group: HepG2, active caspase 3, in words; for percentage of apoptotic cells: HepG2, active caspase 3, text value
Experimental: (§1) Cells were harvested, aliquoted up to 1 × 10^6 cells/100 μL in FACS tubes, washed twice with 2 mL of PBS, centrifuged at 300 × g for five minutes, and the buffer was decanted. Reconstituted cells in 100 μL of staining buffer for flow cytometry. HepG2 cells were stained with propidium iodide according to the technique offered via the kit and subsequently performed on the cytometer. The distribution of the cell cycles was estimated and analyzed using a FACScan TM device (BD, Franklin Lakes, NJ). Furthermore, the caspase-3 apoptotic marker levels were investigated by flow cytometry. During the flow cytometry assay, we investigated a population of HepG2 cells to obtain enough cells for statistically significant detection.
FITC active caspase-3 apoptosis kit (BD Biosciences, Franklin Lakes, NJ, USA) was used for detection of active caspase 3 followed by flow cytometry analysis according to the instructions of the kit manufacturer.

[2] = system: Liver mesenchymal stem cells; assay: MTT cytotoxicity assay, liver mesenchymal stem cells (normal cell line); type: cell-based; conditions: 24 h
Experimental: (§2) The HepG2 cell line was obtained from ATCC (Rockville, MD). Liver mesenchymal stem cells were harvested from liver biopsy according to previously published protocols.[34] Cells were grown in DMEM media with 10% fetal bovine serum (FBS), 100 U per mL penicillin, and […] streptomycin at 37 °C, 5% CO2. The MTT assay kit, which relies on succinate dehydrogenase in living cells' mitochondria to convert the 3-(4,5-dimethylthiazol-2-yl)-2,5-diphenyltetrazolium bromide (MTT) dye to violet formazan crystals, was used to calculate the vitality of individual cells. 6000 cells per well were seeded in the 96-well plate containing, which were then incubated for 24 h. Different concentrations of drug were dissolved in DMEM and then added to the wells to replace the culture medium. The medium was discarded after incubation for 24 h under the same conditions, and 100 μL of MTT (2 mg mL^−1) were added. After 3 h of incubation at 37 °C, the generated formazan crystals generated were dissolved in 50 μL of DMSO. The optical density was then measured using a Stat Fax ELISA plate reader (Romer Labs, Getzersdorf, Austria) at 570 nm with a reference wavelength of 630 nm after incubating the plate at 37 °C for 15 min. As a positive control, the tyrosine kinase inhibitor sorafenib (Bayer, Germany) was employed. DMSO was used as a solvent and its final concentration was less than 0.2%. SI and IC50 were calculated. Triplicates of each in vitro test were performed.[33]

HepG2 cell line = assay: MTT cytotoxicity assay, HepG2; type: cell-based, human; conditions: for IC50: Homo sapiens, HepG2, 24 h; for cytotoxic action against HepG2: MTT assay, in words
Experimental: as §2

HepG2 cells [3] = assay: Wound healing (cell migration) assay; type: cell-based, human; conditions: for cell migration of HepG2 cells: 24 h, versus untreated control; for antimigration effect compared to sorafenib: HepG2, 24 h, quantified relative migration
Experimental: The wound healing assay was used to investigate the anti-cell migration/antiproliferation effects of synthesized hydrazone derivatives on the HepG2 cell line. In DMEM medium supplemented with 10% fetal bovine serum (FBS), 100 U per mL penicillin, and […] streptomycin, cells were cultured at 37 °C and 5% CO2. After reaching 80% density, the monolayer cells were scratched using a sterile tip and then washed with phosphate buffered saline, pH 7.4. Different hydrazone derivatives were applied to cells, which were then incubated for 24 h at 37 °C and 5% CO2. Finally, an Olympus microscope (Olympus Europa, Hamburg, Germany) was used to take pictures of the wound areas at 0 and 24 h. The relative cell migration was calculated using the following equation:Relative migration = (width0h − width24h)/width0h

HepG2 cells [4] = assay: Propidium iodide cell cycle flow cytometry; type: cell-based, human
Experimental: as §1

Cytochrome C = Cytochrome C sandwich ELISA; type: cell-based; conditions: versus control group
Experimental: Cytochrome C was quantified using a sandwich ELISA kit (Abcam, Cambridge, UK) according to the manufacturer's procedures. After the addition of the TMB substrate and the development of the color, the optical density was measured using a Stat fax microplate reader, USA, at 450 nm.

IL-6 = IL-6 gene expression (RT-PCR); type: cell-based; conditions: normalised to β-actin, versus control group
Experimental: After two rounds of PBS washing, total RNA was extracted using the TRIzol Reagent, and cDNA synthesis was performed using the high-capacity cDNA reverse transcription kit in accordance with the manufacturer's instructions. The qPCR reaction mixture contained so-fast EvaGreen supermix (10 μL), cDNA (2 μL), invitrogen RT-PCR grade water (6 μL), and the primer pair (500 nM; forward primer 5′-CAAATTCGGTACATCCTC-3′, reverse primer 5′-CTGGCTTGTTCCTCACTA-3′). The amplification started with heating 10 min at 95 °C, followed by 40 cycles of 15 s at 95 °C, 20 s at 55 °C and 30 s at 72 °C. The amplification data was then analyzed as previously described previously with normalization to β-actin.[35]

Row | Structure (SMILES) | percentage of apoptotic cells compared to the control group (HepG2 cells [1]) | IC50 [2] [µM] | IC50 (HepG2 cell line) [µM] | cytotoxic action against HepG2 (HepG2 cell line) | cell migration of HepG2 cells (HepG2 cells [3]) | antimigration effect compared to sorafenib (HepG2 cells [3]) | percentage of apoptotic cells (HepG2 cells [1]) [%] | cells in G2/M phase (HepG2 cells [4]) [%] | cells in S-phase (HepG2 cells [4]) [%] | cytochrome C concentration (Cytochrome C) | IL-6 mRNA expression (IL-6) | cells in the G0/G1 phase (HepG2 cells [4]) [%]
1 | NN=C(C1CC1)C1CC1 [Compound 2, dicyclopropylmethylene hydrazone] | increased significantly | > 100 | 94.7 | excellent cytotoxic action | substantially reduced |  |  |  |  |  |  | 
2 | COc1ccc(/C=N\N=C(C2CC2)C2CC2)cc1 [Compound 3a] |  | > 100 | 48.2 |  |  |  |  |  |  |  |  | 
3 | O=[N+]([O-])c1ccc(/C=N\N=C(C2CC2)C2CC2)cc1 [Compound 3b] |  | 90.2 | > 100 |  |  |  |  |  |  |  |  | 
4 | O=C1Nc2ccccc2/C1=N/N=C(C1CC1)C1CC1 [Compound 4, 3-(dicyclopropylmethylene)hydrazone indolin-2-one] | increased significantly | 100 | 53.7 | excellent cytotoxic action | substantially reduced |  |  |  |  |  |  | 
5 | Oc1ccccc1/C=N/N=C/c1ccccc1O [Compound 5] |  | > 100 | 75.8 |  |  |  |  |  |  |  |  | 
6 | NC1=NNC2(C(=O)Nc3ccccc32)N1N=C(C1CC1)C1CC1 (centres unmarked) [Compound 7a] |  | > 100 | > 100 |  |  |  |  |  |  |  |  | 
7 | O=C1Nc2ccccc2C12NN=C(c1ccccc1)N2N=C(C1CC1)C1CC1 (centres unmarked) [Compound 7b] |  | 100 | > 100 |  |  |  |  |  |  |  |  | 
8 | NC1=NNC(c2ccccc2O)N1/N=C\c1ccccc1O (centres unmarked) [Compound 8a] | increased significantly | 100 | 62.2 | excellent cytotoxic action | substantially reduced |  |  |  |  |  |  | 
9 | Oc1ccccc1/C=N\N1C(c2ccccc2)=NNC1c1ccccc1O (centres unmarked) [Compound 8b] |  | 75.5 | > 100 |  |  |  |  |  |  |  |  | 
10 | Cc1nc2ccccc2c(=O)n1N=C(C1CC1)C1CC1 [Compound 11, 3-((dicyclopropylmethylene)amino)-2-methylquinazolin-4(3H)-one] |  | > 100 | > 100 |  |  |  |  |  |  |  |  | 
11 | O=C1C(=O)c2ccccc2C2=C1NNC(C1CC1)(C1CC1)O2 [Compound 13] | increased significantly | 85.2 | 61.4 | excellent cytotoxic action | substantially reduced | significant antimigration effect |  |  |  |  |  | 
12 | O=C1CCC(=O)N1N=C(C1CC1)C1CC1 [Compound 16] | increased significantly | 76.5 | 23.6 | excellent cytotoxic action | substantially reduced | significant antimigration effect | 80 | 1.2 | 4.5 | significant increase; also recorded: increase in cytochrome C greater than sorafenib | significant (P < 0.001) decrease | 
13 | NC1=CC(=O)NNC1(C1CC1)C1CC1 [Compound 18] | increased significantly | 100 | 89.5 | excellent cytotoxic action | substantially reduced |  |  |  |  |  |  | 
14 | Cc1nc2ccccc2c(=O)n1NC(=S)N=C(C1CC1)C1CC1 [Compound 20] | increased significantly | 61.5 | 48.6 | excellent cytotoxic action | substantially reduced | significant antimigration effect |  |  |  |  |  | 
15 | CNC(=O)c1cc(Oc2ccc(NC(=O)Nc3ccc(Cl)c(C(F)(F)F)c3)cc2)ccn1 [Sorafenib, reference compound] | increased significantly | 100 | 25.6 | excellent cytotoxic action | substantially reduced |  | 75 | 10.68 | 4.17 | significant increase | significant (P < 0.001) decrease | 74.93
